Laboratory results reported in patent US4089946A, “Claudogenic-interceptive nonapeptides” (American Home Products Corporation, priority 1976, dated 1978).

Columns and labels:
[1] = system: Mature, female, Sprague-Dawley rats (pregnancy: uterine implantation sites and fetuses); assay: Anti-gravidity (claudogenic/interceptive, post-coital) evaluation in pregnant rats; assay type: in vivo, rat
Excerpt: The procedure followed in evaluating the anti-gravidity properties of the nonapeptides of this invention was as follows: Mature, female, Sprague-Dawley rats (350 + 30 grams body weight) maintained on a 14:10 light:dark schedule were caged with fertile male rats on the evening of proestrus. The presence of vaginal sperm the next morning was considered day 1 of pregnancy. The nonapeptide ethylamine produced in the following examples, representative of the entire group of compounds of this invention, was administered subcutaneously in a corn oil vehicle on days 1-7, or 7-12 of pregnancy at a rate of as low as 1 μg/rat/day. One-half the daily dose was administered at 9 A.M. and at 3 P.M. each day. The recipients of day 1-7 treatment were autopsied on day 14. The recipients of day 7-12 treatment were autopsied on day 18 of pregnancy. The effectiveness of the ethylamide and its effective dose was established by the absence of uterine implantation sites and fetuses. The presence of at least one normal fetus was considered to be the criterion for pregnancy. […]

[2] = system: Proestrous female Sprague-Dawley rats (ovulation, ova in fallopian tubes); assay: Ovulation induction in Nembutal-blocked proestrous rats; assay type: in vivo, rat
Method: The ovulation-induction properties of the nonapeptides of this invention was determined with the preferred compound, [D-Trp^6,(N-methyl)Leu^7,des-Gly-NH2^10,Pro-ethylamide]LRH as follows: Proestrous female Sprague-Dawley rats were injected intraperitoneally with a hypnotic dose of Nembutal® (50 mg/kg) at 1:30 PM. Between 1:40 and 1:50 PM the rats received the test material via the jugular vein. The following morning the animals were sacraficed and the fallopian tubes examined for ova under a dissecting microscope. […] Thus, in its ovulation induction, the preferred compound of this invention is about ten times as active as its closest structural analogues.

Compound	effectiveness of treatment (absence of uterine implantation sites and fetuses) ([1]; 1 microgram per rat per day subcutaneously in corn oil, day 1-7 of pregnancy, five rat sample, autopsy day 14) [%]	effectiveness of treatment (absence of uterine implantation sites and fetuses) ([1]; 10 micrograms per rat per day subcutaneously in corn oil, day 7-12 of pregnancy, autopsy day 18) [%]	rats showing ovulation inducing activity ([2]; 0.1 mg per rat via the jugular vein) [%]	ovulation induction activity relative to closest structural analogues ([2]; rat, in vivo)	dose required to obtain 100 percent ovulation ([2]; via the jugular vein)
CCNC(=O)[C@@H]1CCCN1C(=O)[C@H](CCCNC(=N)N)NC(=O)[C@H](CC(C)C)N(C)C(=O)[C@@H](Cc1c[nH]c2ccccc12)NC(=O)[C@H](Cc1ccc(O)cc1)NC(=O)[C@H](CO)NC(=O)[C@H](Cc1c[nH]c2ccccc12)NC(=O)[C@H](Cc1c[nH]cn1)NC(=O)[C@@H]1CCC(=O)N1 [L-pyroglutamyl-L-histidyl-L-tryptophyl-L-seryl-L-tyrosyl-D-tryptophyl-N-methyl-L-leucyl-L-arginyl-L-prolinethylamide]	100	100	100	about ten	
LRH: LRH itself, the parent hormone used as comparison for ovulation induction (QHWSYGLRPG; Gonadoliberin-1; UniProt P01148 24-33, looked up) [reference compound]					about 3 mg per rat
